Measured values as given in patent publication US20150274701A1, “NEW AZIDES, METHOD FOR PRODUCING SAME AND APPLICATIONS THEREOF” (COMMISSARIAT A L'ENERGIE ATOMIQUE ET AUX ENERGIES …, priority 2012, published 2015).

Columns and labels:
[1] = Azide/alkyne click reaction kinetics in a buffered medium (fluorescent test); details: for Reaction rate / Ligation yield: aqueous medium at neutral pH, azide, alkyne and Cu 17.5 μM, sodium ascorbate 475 μM (25 eq); for Ligation yield: monitored for 20 minutes
Experimental: The azide/alkyne coupling reaction kinetics obtained using azides of the present invention and also the kinetics obtained using copper-chelating compounds and azides of the prior art were studied.
The kinetics were done under concentration conditions conventional in bioconjugation, i.e. in an aqueous medium at neutral pH and under conditions of low concentration of reagents: azide, alkyne and Cu 17.5 μM, sodium ascorbate 475 μM (25 eq).
The reactivity of the azides of the invention with respect to the azide/alkyne “click” reaction was evaluated by means of a fluorescent test (scheme 1) which makes it possible to establish the kinetic parameters of the reaction and to compare them with the solutions from the literature. This test uses a pro-fluorescent alkyne C1 which forms a highly fluorescent cycloaddition product C2. The synthesis and the fluorescence properties are described in the literature.
100 μl of a solution containing 35 μM of alkyne C1 and 35 μm of azide RN3 dissolved in a DMF/H2O mixture (50/50) are added to 50 μl of an aqueous solution containing 70 μM of CuSO4. The reaction is then initiated by adding 50 μl of an aqueous solution containing 1.75 mM of ascorbic acid (AS). The cycloaddition reaction is monitored by measuring, every 5 seconds, for 20 minutes, the fluorescence intensity at 400 nm following excitation at 320 nm. The reaction yield is calculated by means of a calibration range previously established with the cyclo-adduct C2.

[2] = Ligation kinetics in a complex medium (cell lysate), fluorescent test; details: azide and alkyne 17.5 μM, Cu 350 μM, sodium ascorbate 8.75 mM (500 eq)
Experimental: An experiment was also carried out in a cell culture medium. The process was carried out as follows:
100 μl of a solution containing 35 μM of alkyne C1 and 35 μM of azide RN3 dissolved in cell lysate are added to 50 μl of cell lysate containing 1.4 mM of CuSO4. The reaction is then initiated by adding 50 μl of an aqueous solution containing 1.75 mM of ascorbic acid (AS). The cycloaddition reaction is monitored by measuring, every 5 seconds, for 20 minutes, the fluorescence intensity at 400 nm following excitation at 320 nm. The reaction yield is calculated by means of a calibration range previously established with the cyclo-adduct C2.
Conditions: Azide and alkyne 17.5 μM, Cu 350 μM, sodium ascorbate 8.75 mM (500 eq).

[3] = Click reaction kinetics of chelating azides in cell lysate (fluorescent test); details: cell lysate of Jurkat (human T-cell leukemia), alkyne and azide 17 μM, copper sulfate 34 μM, sodium ascorbate 850 μM
Experimental: (§1) The reaction kinetics were determined by means of a fluorescent test illustrated by the reaction below, making it possible to establish the kinetic parameters of the reaction and to compare them with the solutions from the literature. This test uses a pro-fluorescent alkyne which forms a highly fluorescent cycloaddition product.
(§2) The operating conditions are the following: the same concentration of 17 μM was used for the alkyne and for the azide. The copper sulfate concentration was 34 μM and the sodium ascorbate (AS) concentration was 850 μM.
(§3) The process was carried out, on the one hand, in a 0.1M phosphate buffer at pH 7.4 and, on the other hand, in a cell lysate obtained by means of three cycles of sonication of Jurkat ([…]) for 30 seconds. The alkyne, the azide and the copper sulfate are mixed at ambient temperature for 30 minutes and then the kinetics are initiated by adding sodium ascorbate.

[4] = Click reaction kinetics of chelating azides in phosphate buffer (fluorescent test); details: 0.1M phosphate buffer pH 7.4; alkyne and azide 17 μM, copper sulfate 34 μM, sodium ascorbate 850 μM
Experimental: as §1, §2, §3

[5] = system: HuH-7 cells; assay: Ligation in living cells, fluorescence microscopy; assay type: cell-based; details: HuH-7 cells pre-incubated with 62.5 nM paclitaxel-alkyne 2; 100 μM copper complex of compound 1 for 4 h
Experimental: HuH-7 cells fixed on 96-well plates, incubated beforehand in the presence of paclitaxel 2 comprising an alkyne function, were treated with the copper complex above.
The cells were treated with 100 μl of a 62.5 nM solution of compound 2 dissolved in 0.1M phosphate buffer, and then incubated at 37° C. for 30 min. The cells are then washed twice by adding 100 μl of 0.1M phosphate buffer and then treated for 4 h with 100 μl of a 100 μM solution of the copper complex of compound 1. The cells are again washed twice by adding 100 μl of 0.1M phosphate buffer and then fixed by treating with 150 μl of a 4% formaldehyde solution. After fixing for 15 min, the cells are washed twice by adding 100 μl of 0.1M phosphate buffer and then incubated with a 62.5 nM solution of Tubulin Tracker® Green 3 for 30 min at 37° C. The cells are again washed with 0.1M phosphate buffer and then observed by fluorescence microscopy.
After cell washing steps, the fluorescence of the rhodamine part of the copper complex of compound 1 was measured. […] Compound 3, a covalent conjugate between the paclitaxel and the Oregon Green® fluorophore, was used as a control.
FIG. 8A illustrates the localization of the cell nucleus by the 4′,6′-diamidino-2-phenylindole reagent.

With [N-]=[N+]=NCc1ccccn1 [Comparative example 2, reference compound] as the compound, how does the Reaction rate [1] read?
The Reaction rate was 4.2 µM/min.

What about the Ligation yield [1] of the same compound?
The Ligation yield was 28%.

Which “position of the ligation yield versus time curve in FIG. 5” value [2] does the source give for COc1ccnc(CN=[N+]=[N-])c1 [Comparative example 3, reference compound] here?
Its value is “lower curves”.

What about the Reaction rate [1] of the same compound?
The Reaction rate was 3.5 µM/min.

And the Ligation yield [1]?
The Ligation yield was 35%.

What does the source list for [N-]=[N+]=NCCCN(Cc1cn(CCCCC(=O)O)nn1)Cc1cn(CCCCC(=O)O)nn1 [Example 1, 5,5′-(4,4′-(((3-azidopropyl)azanediyl)bis(methylene))bis(1H-1,2,3-triazole-4,1-diyl))dipentanoic acid]?
click reaction activity (FIG. 7) [3]: make it possible to carry out the click reaction with efficiency; click reaction activity (FIG. 6) [4]: make it possible to carry out the click reaction with efficiency; Reaction rate [1]: 12.0 µM/min; Ligation yield [1]: 74%; ligation yields relative to the best comparable compounds of the prior art ([1]; buffered medium): twice as high

Which “click reaction activity (FIG. 7)” value [3] does the source give for CC(C)(C)n1cc(CN(CCCN=[N+]=[N-])Cc2cn(CCCCC(=O)O)nn2)nn1 [Example 2, 5-(4-(((3-azidopropyl)((1-(tert-butyl)-1H-1,2,3-triazol-4-yl)methyl)amino)methyl)-1H-1,2,3-triazol-1-yl)pentanoic acid] here?
Its value is “particularly effective”.

What about the “click reaction activity (FIG. 7)” value ([3]; listed as A20) of the same compound?
The value was “make it possible to carry out the click reaction with efficiency”.

What about the “position of the ligation yield versus time curve in FIG. 5” value [2] of the same compound?
Its value is “upper curve”.

And the “click reaction activity (FIG. 6)” value [4]?
Its value is “make it possible to carry out the click reaction with efficiency”.

Which “click reaction activity (FIG. 7)” value [3] does the source give for [N-]=[N+]=NCCCN(Cc1ccccn1)Cc1ccccn1 [Example A14, reference compound] here?
The value was “inactive”.

And the “click reaction activity (FIG. 6)” value [4]?
The value was “inactive”.

For Cn1c(CN(CCCN=[N+]=[N-])Cc2nc3ccccc3n2C)nc2ccccc21 [Preparation 1, 3-Azido-N,N-bis((1-methyl-1H-benzo[d]imidazol-2-yl)methyl)propan-1-amine], which Reaction rate [1] is on record?
The Reaction rate was 101.7 µM/min.

And the Ligation yield [1]?
The Ligation yield was 65%.

What about the “click reaction faster than the comparable compounds of the prior art” value ([1]; buffered medium) of the same compound?
The value was “approximately 20 times”.

For [N-]=[N+]=NCCCN(Cc1cn(Cc2ccccc2)nn1)Cc1cn(Cc2ccccc2)nn1 [Preparation 2, 3-azido-N, N-bis((1-benzyl-1H-1,2,3-triazol-4-yl)methyl)propan-1-amine], which Reaction rate [1] is on record?
Its Reaction rate is 10.8 µM/min.

What about the Ligation yield [1] of the same compound?
Its Ligation yield is 45%.

For CN(C)c1ccc2c(-c3cc(C(=O)NCCCN4C(=O)CC(SCC(=O)NCCCNC(=O)CCCn5cc(CN(CCCN=[N+]=[N-])Cc6cn(C(C)(C)C)nn6)nn5)C4=O)ccc3C(=O)[O-])c3ccc(=[N+](C)C)cc-3oc2c1 (centres unmarked) [azide 1, 4-((3-(3((2-((3-(4-(4-(((3-azidopropyl)((1-(tert-butyl)-1H-1,2,3-triazol-4-yl)methyl)amino)methyl)-1H-1,2,3-triazol-1-yl)butanamido)propyl)amino)-2-oxoethyl)thio)-2,5-dioxopyrrolidin-1-yl)propyl)carbamoyl)-2-(6-(dimethylamino)-3-(dimethyliminio)-3H-xanthen-9-yl)benzoate], which “cell penetration and intracellular click coupling to paclitaxel-alkyne 2 bound to tubulin (FIG. 8)” value [5] is on record?
The value was “capable of penetrating inside the cells and of coupling”.

Which results are given for “Diethyl 5,5′-(4,4′-(((3-azidopropyl)azanediyl)bis(methylene))bis(1H-1,2,3-triazole-4,1-diyl))dipentanoate [Preparation 3]”?
position of the ligation yield versus time curve in FIG. 5 [2]: middle curve; Reaction rate [1]: 16.5 µM/min; Ligation yield [1]: 67%; ligation yields relative to the best comparable compounds of the prior art ([1]; buffered medium): twice as high
